The text below walks through data of publication PMC5321741, “Arylmethylamino steroids as antiparasitic agents” (Nature Communications, 2017).

Like-named read-outs stand apart in the source and are kept apart here.

A short description of series [1]: hepatic microsome stability. Type of series: in vitro ADME. The conditions noted are these: for remaining at 1 h: liver microsomes, read-out: Hepatic Microsome Stability % remaining after 1 h. The procedure:
Pharmacokinetic data were obtained for compound 1o at the Sanford-Burnham Medical Research Institute according to established procedures. Compound solubility in an aqueous solution was measured using an automated kinetic solubility method. The concentration of the compound in a saturated pH-buffered aqueous solution was determined via UV absorbance (250–498 nm) and compared with the spectra of a precipitation-free reference solution. The plasma stability of the compound was determined at a single concentration using species-specific plasma. The percentage of parent compound remaining after 3 h was determined via LC-MS/MS. The percentage of compound 1o bound to plasma proteins was determined through rapid equilibrium dialysis and quantified via LC-MS/MS. Metabolic stability of the compound was determined at a single concentration using species-specific liver microsomes that contained cytochrome P450s, flavin-monooxygenases, carboxyl-esterases, epoxide hydrolases, and other drug-metabolizing enzymes. The quantification was carried out via LC-MS/MS. Membrane permeability of compound 1o was measured using an in vitro model for the passive transport from the gastrointestinal tract into the blood system. A double-sink parallel artificial membrane permeability assay PAMPA, in a 96-well format was employed.
Background: Liver microsomes are a subcellular fraction often used to study metabolism.

Series [2] has as its system P. falciparum NF54. Kind of series: IC50 speed assay. Type of series: cell-based, Plasmodium falciparum. The settings on record: for IC50: Plasmodium falciparum, mean±s.d., three biological replicates. How it is done:
To assess the rapidity of growth inhibition induced by the steroid compounds, the so-called IC50 speed assay[16] was conducted for compound 1o on P. falciparum NF54 (Fig. 2a,b).

As for `COc1ccc2c(c1)CCC1C2CC[C@@]2(C)C1CC[C@H]2NCc1cc2ccccc2cc1O` (some centres unmarked) [1o], the “Hepatic Microsome Stability % remaining after 1 h” value in series [1] (Human) and in series [1] (Mouse) was roughly 38% throughout. Moreover, the fraction remaining at 1 h in series [1] (human) and in series [1] (mouse) was 38.5% in each case. For the same compound, the “speed of action (IC50 shift across 24, 48, 72 h)” value in series [2] is on record as “no significant IC50 shifts”. In addition, the IC50 (commonly the concentration at which inhibition is half-maximal) in series [2] (NF54, read-out: IC50 24 h, 24 h compound incubation) came to 2.9 ± 0.2 nM; in series [2] (NF54, 48 h compound incubation, read-out: IC50 48 h), 3.4 ± 0.2 nM; in series [2] (NF54, 72 h compound incubation, read-out: IC50 72 h) it was 2.7 ± 0.4 nM.
